Measured values taken from PMC5291822 (Bioorganic & medicinal chemistry, 2016).

Columns and labels:
human GV sPLA2 = target: T1, human GV sPLA2 (Homo sapiens, UniProt P39877); test: mixed micelle modified Dole assay, GV sPLA2; format: biochemical
T1 sequence (P39877 21-138): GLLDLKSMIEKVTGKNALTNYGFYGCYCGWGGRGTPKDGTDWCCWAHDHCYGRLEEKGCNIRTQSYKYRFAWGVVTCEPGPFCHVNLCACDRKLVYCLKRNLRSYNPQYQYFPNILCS

human GIVA cPLA2 [1] = target: T2, human GIVA cPLA2 (Homo sapiens, UniProt P47712); test: mixed micelle modified Dole assay, GIVA cPLA2; format: biochemical
T2 sequence (P47712 1-749): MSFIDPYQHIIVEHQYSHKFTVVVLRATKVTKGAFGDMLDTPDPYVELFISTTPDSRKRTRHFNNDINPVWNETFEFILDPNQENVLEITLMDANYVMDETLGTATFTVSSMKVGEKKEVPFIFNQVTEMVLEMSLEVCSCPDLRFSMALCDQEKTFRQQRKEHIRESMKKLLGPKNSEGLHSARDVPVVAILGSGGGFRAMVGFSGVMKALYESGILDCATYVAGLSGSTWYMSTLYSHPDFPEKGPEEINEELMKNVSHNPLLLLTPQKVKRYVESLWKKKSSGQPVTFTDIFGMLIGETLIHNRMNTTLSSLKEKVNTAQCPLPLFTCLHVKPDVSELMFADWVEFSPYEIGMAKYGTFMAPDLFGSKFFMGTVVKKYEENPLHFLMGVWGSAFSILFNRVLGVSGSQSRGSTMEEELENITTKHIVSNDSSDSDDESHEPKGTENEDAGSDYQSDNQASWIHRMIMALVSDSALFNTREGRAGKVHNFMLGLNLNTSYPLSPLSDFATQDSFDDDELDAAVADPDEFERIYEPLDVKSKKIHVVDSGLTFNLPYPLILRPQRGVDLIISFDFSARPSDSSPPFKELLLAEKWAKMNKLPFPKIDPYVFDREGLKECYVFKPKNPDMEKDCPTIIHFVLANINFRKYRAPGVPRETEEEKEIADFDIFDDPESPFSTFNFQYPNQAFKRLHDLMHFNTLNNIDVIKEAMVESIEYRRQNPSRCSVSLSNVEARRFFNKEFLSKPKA

human GIVA cPLA2 [2] = target: T2, human GIVA cPLA2; conditions: 0.091 mol fraction; reference inhibitor; cited from earlier work
[3] = system: experimental autoimmune encephalomyelitis; conditions: cited from earlier work
[4] = system: magnesium-dependent phosphatidate phosphohydrolase-1; conditions: off-target; cited from earlier work

Which “inhibition of GV sPLA2 (in words)” value (human GV sPLA2) does the source give for `CCCC[C@H](NC(=O)C(=O)CCCCc1ccc(OC)cc1)C(=O)NCC(=O)OC(C)(C)C` [compound 12c, (S)-tert-Butyl 2-(2-(6-(4-methoxyphenyl)-2-oxohexanamido)hexanamido)acetate] here?
The value was “weak inhibition”.

And the “inhibition of GIVA cPLA2 (in words)” value (human GIVA cPLA2 [1])?
Its value is “weak inhibition”.

Which “% Inhbition GIVA cPLA2” value (human GIVA cPLA2 [2]) does the source give for `O=C(CCCCc1ccccc1)C(F)(F)C(F)(F)F` [FKGK11] here?
Its value is “N.D.[17] (N.D. signifies compounds with less than 25% inhibition (or no detectable inhibition).)”.

And the “clinical severity and progression of experimental autoimmune encephalomyelitis” value [3]?
The value was “strong reduction in the clinical severity and progression”.

For `O=C1O/C(=C/Br)CCC1c1cccc2ccccc12` (centres unmarked) [BEL, Bromoenol lactone], which “inhibition of magnesium-dependent phosphatidate phosphohydrolase-1 (in words)” value [4] is on record?
The value was “able to inhibit”.
